In patent US20230286970A1, “NOVEL OXADIAZOLE-BASED SELECTIVE HDAC6 INHIBITORS” (ITALFARMACO S.P.A., priority 2020, published 2023):

How the values were obtained:
[1] = Stability to Phase I metabolism in human S9 liver fraction; details: after 90 minutes, 37° C.
Experimental: Test compounds were incubated in rat and human liver S9 fraction at 37° C. up to 90 minutes in order to evaluate their stability to Phase I metabolism by hepatic enzymes. Each test compound was incubated at μM concentration (50 μM when the samples were analysed by UV/HPLC, 1 or 2 μM when the samples were analysed by LC-MS/MS) with S9 fraction (protein content 2 mg/m L) in 100 mM phosphate buffer (pH 7.4), 3.3 mM MgCl2 and 1.3 mM NADPH for 0, 10, 30, 60 and 90 minutes at 37° C. in a thermostated oscillating bath. The reaction was stopped placing samples on ice bath and adding acidified acetonitrile. After centrifugation (10 minutes at 14000 rpm) an aliquot of the supernatant was diluted with water, filtered with 0.45 μm regenerated cellulose syringe filters and injected in HPLC-UV or in LC-MS/MS. The percentage of the remaining amount at the various incubation times with respect to the initial amount were calculated.

[2] = Stability in human plasma; details: after 4 hours, 37° C.
Experimental: In order to evaluate the stability to circulating enzymes, test compounds were incubated in human and rat plasma at 37° C. in a thermostated oscillating bath. Each test compound was incubated at μM concentration (50 μM when the samples were analysed by UV/HPLC, 1 or 2 μM when the samples were analysed by LC-MS/MS) for 0, 15, 30 minutes and 1, 2 and 4 hours. The reaction was stopped placing samples on ice bath and adding acidified acetonitrile. After centrifugation (10 minutes at 14000 rpm) an aliquot of the supernatant was diluted with water, filtered with 0.45 μm regenerated cellulose syringe filters and injected in HPLC-UV or in LC-MS/MS. The percentage of the remaining amount at the various incubation times with respect to the initial amount were calculated. The half-life in plasma was also calculated.

[3] = target: recombinant human HDAC1 (Homo sapiens (Human), UniProt Q13547); experiment: Enzymatic screening, HDAC1 inhibition (fluorogenic FdL_G substrate); format: biochemical
recombinant human HDAC1, sequence (Q13547 whole entry): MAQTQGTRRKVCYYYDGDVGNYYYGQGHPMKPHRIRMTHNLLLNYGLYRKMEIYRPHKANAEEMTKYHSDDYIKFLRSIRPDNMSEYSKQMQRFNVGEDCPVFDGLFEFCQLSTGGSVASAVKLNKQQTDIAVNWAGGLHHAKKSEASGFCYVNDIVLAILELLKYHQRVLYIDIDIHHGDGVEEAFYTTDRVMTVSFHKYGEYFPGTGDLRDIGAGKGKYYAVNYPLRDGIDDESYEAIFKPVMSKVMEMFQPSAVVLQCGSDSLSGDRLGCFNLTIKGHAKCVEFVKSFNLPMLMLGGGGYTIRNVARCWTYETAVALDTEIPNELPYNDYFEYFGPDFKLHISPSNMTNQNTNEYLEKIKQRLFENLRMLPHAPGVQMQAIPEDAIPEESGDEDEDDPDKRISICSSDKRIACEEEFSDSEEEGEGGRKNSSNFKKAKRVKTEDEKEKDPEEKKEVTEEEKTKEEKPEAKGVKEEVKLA
Procedure, shortened: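 Recombinant human HDAC1 inhibition was measured fluorometrically using the FLUOR DE LYS-Green (FdL_G) substrate. Compounds at 8 doses (1% DMSO final) in Tris-HCl pH 8 buffer with NaCl, Tween-20 and glycerol were preincubated in triplicate with enzyme and 1 mg/mL BSA, then given substrate. Developer I plus 2 μM TSA was added, and fluorescence read after 25 minutes in the dark.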

[4] = target: recombinant human HDAC6 (Homo sapiens (Human), UniProt Q9UBN7); experiment: Enzymatic screening, HDAC6 inhibition (fluorogenic FdL_G substrate); format: biochemical
recombinant human HDAC6, sequence (Q9UBN7 whole entry): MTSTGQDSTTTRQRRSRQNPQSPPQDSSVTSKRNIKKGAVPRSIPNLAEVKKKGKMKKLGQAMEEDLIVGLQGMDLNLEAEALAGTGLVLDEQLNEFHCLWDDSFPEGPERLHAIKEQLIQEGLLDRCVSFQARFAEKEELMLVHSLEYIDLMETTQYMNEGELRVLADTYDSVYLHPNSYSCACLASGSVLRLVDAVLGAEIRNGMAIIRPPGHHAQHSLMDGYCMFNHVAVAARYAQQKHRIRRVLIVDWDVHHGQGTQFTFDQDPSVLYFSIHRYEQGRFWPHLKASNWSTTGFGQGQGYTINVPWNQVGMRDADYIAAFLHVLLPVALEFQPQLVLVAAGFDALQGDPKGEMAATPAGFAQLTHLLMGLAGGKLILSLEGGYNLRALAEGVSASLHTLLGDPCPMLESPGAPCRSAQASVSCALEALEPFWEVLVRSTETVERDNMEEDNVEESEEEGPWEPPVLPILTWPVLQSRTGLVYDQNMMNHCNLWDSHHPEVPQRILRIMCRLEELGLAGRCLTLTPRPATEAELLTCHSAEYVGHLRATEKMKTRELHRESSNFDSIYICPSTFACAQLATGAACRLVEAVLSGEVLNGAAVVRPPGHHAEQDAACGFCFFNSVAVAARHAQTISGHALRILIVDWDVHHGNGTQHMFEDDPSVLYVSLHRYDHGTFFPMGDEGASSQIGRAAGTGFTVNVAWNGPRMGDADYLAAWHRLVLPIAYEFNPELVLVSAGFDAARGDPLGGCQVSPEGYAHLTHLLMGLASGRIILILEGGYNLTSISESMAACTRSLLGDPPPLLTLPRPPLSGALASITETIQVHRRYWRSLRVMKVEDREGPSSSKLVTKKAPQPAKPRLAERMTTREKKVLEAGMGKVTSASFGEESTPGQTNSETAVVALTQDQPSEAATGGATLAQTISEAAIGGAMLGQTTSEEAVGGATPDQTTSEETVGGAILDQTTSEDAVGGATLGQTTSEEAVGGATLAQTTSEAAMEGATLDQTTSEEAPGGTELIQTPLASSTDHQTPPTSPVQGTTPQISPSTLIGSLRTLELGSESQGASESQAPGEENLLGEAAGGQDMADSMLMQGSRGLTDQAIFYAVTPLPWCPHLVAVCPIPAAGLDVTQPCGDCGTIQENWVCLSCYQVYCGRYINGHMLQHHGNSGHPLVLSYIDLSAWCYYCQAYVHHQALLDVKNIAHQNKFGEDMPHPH
Procedure, shortened: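 Enzyme was preincubated with compound (8 doses, triplicate, 1% DMSO) in 25 mM Tris-HCl pH 8, 130 mM NaCl, 0.05% Tween-20, 10% glycerol, with BSA. A FLUOR DE LYS-Green substrate was then added, and fluorescence was read after developer plus 2 μM TSA.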

[5] = Stability to Phase I metabolism in rat S9 liver fraction; details: after 90 minutes, 37° C.
[6] = Stability in rat plasma; details: after 4 hours, 37° C.

residual percentage in HUMAN S9 FRACTION [1] [%]	residual percentage in HUMAN PLASMA [2] [%]	IC50 [3] [nM]	IC50 [4] [nM]	residual percentage in RAT S9 FRACTION [5] [%]	residual percentage in RAT PLASMA [6] [%]	Compound
78	88	> 200000	46	10	84	Fc1cc(-c2nnc(C(F)F)o2)cc(F)c1Cn1cc(-c2cccs2)nn1 [compound 122, 2-(3,5-difluoro-4-((4-(thiophen-2-yl)-1H-1,2,3-triazol-1-yl)methyl)phenyl)-5-(difluoromethyl)-1,3,4-oxadiazole]
92	90	> 200000	202	63	84	CCCCC(c1ccc(-c2nnc(C(F)F)o2)cc1)n1cc(-c2ccc(N)nc2)nn1 (stereo not drawn) [compound 235, 5-(1-(1-(4-(5-(difluoromethyl)-1,3,4-oxadiazol-2-yl)phenyl)pentyl)-1H-1,2,3-triazol-4-yl)pyridin-2-amine]
87	99	> 200000	55	0	58	CC(=O)c1cccc(-c2nnn(Cc3ccc(-c4nnc(C(F)F)o4)cc3)n2)c1 [compound 140, 1-(3-(2-(4-(5-(difluoromethyl)-1,3,4-oxadiazol-2-yl)benzyl)-2H-tetrazol-5-yl)phenyl)ethan-1-one]
95	90	> 200000	104	77	88	CC[C@H](c1ccc(-c2nnc(C(F)F)o2)cc1)n1cc(-c2ccc(N)nc2)nn1 (stereo in doubt) [compound 194, 5-(1-(1-(4-(5-(difluoromethyl)-1,3,4-oxadiazol-2-yl)phenyl)propyl)-1H-1,2,3-triazol-4-yl)pyridin-2-amine]
96	78	66600	45	68	77	FC(F)c1nnc(-c2ccc(Cn3nnc(-c4cccc(-c5nc6c([nH]5)CCNC6)c4)n3)cc2)o1 [compound 108, 2-(difluoromethyl)-5-(4-((5-(3-(4,5,6,7-tetrahydro-1H-imidazo[4,5-c]pyridin-2-yl)phenyl)-2H-tetrazol-2-yl)methyl)phenyl)-1,3,4-oxadiazole]
93	80	> 200000	19	92	94	O=C(Nc1cccc(-c2cn(Cc3ccc(-c4nnc(C(F)F)o4)cn3)cn2)c1)N1CCOCC1 [compound 264, N-(3-(1-((5-(5-(difluoromethyl)-1,3,4-oxadiazol-2-yl)pyridin-2-yl)methyl)-1H-imidazol-4-yl)phenyl)morpholine-4-carboxamide]
98	88	> 200000	51	78	69	CC(=O)Nc1cc(-c2nnn(Cc3ccc(-c4nnc(C(F)F)o4)cc3)n2)cnc1C [compound 133, N-(5-(2-(4-(5-(difluoromethyl)-1,3,4-oxadiazol-2-yl)benzyl)-2H-tetrazol-5-yl)-2-methylpyridin-3-yl)acetamide]
88	94	> 200000	98	90	86	CC(c1ccc(-c2nnc(C(F)F)o2)c(F)c1)n1cc(-c2ccc(N)nc2)nn1 (stereo not drawn) [compound 186, 5-(1-(1-(4-(5-(difluoromethyl)-1,3,4-oxadiazol-2-yl)-3-fluorophenyl)ethyl)-1H-1,2,3-triazol-4-yl)pyridin-2-amine]

Second part, the compound before the results:

Compound	residual percentage in HUMAN S9 FRACTION [1] [%]	residual percentage in HUMAN PLASMA [2] [%]	IC50 [3] [nM]	IC50 [4] [nM]	residual percentage in RAT S9 FRACTION [5] [%]	residual percentage in RAT PLASMA [6] [%]
Nc1ncc(-c2nnn(Cc3ccc(-c4nnc(C(F)F)o4)cc3)n2)cn1 [compound 79, 5-(2-(4-(5-(difluoromethyl)-1,3,4-oxadiazol-2-yl)benzyl)-2H-tetrazol-5-yl)pyrimidin-2-amine]	96	85	> 200000	33	78	77
Nc1ccc(-c2cnn(Cc3ccc(-c4nnc(C(F)F)o4)cc3)c2)cn1 [compound 211, 5-(1-(4-(5-(difluoromethyl)-1,3,4-oxadiazol-2-yl)benzyl)-1H-pyrazol-4-yl)pyridin-2-amine]	63	91	> 200000	147	80	89
Nc1cncc(-c2nnn(Cc3ccc(-c4nnc(C(F)F)o4)cc3)n2)c1 [compound 90, 5-(2-(4-(5-(difluoromethyl)-1,3,4-oxadiazol-2-yl)benzyl)-2H-tetrazol-5-yl)pyridin-3-amine]	83	80	> 200000	34	13	88
Fc1cc(-c2nnc(C(F)F)o2)cc(F)c1Cn1cc(-c2cnc3cccnn23)nn1 [compound 67, 2-(3,5-difluoro-4-((4-(imidazo[1,2-b]pyridazin-3-yl)-1H-1,2,3-triazol-1-yl)methyl)phenyl)-5-(difluoromethyl)-1,3,4-oxadiazole]	77	74	> 200000	29	39	74
Nc1ccc(-c2nnn(Cc3ccc(-c4nnc(C(F)F)o4)cc3)n2)cn1 [compound 64, 5-(2-(4-(5-(difluoromethyl)-1,3,4-oxadiazol-2-yl)benzyl)-2H-tetrazol-5-yl)pyridin-2-amine]	103	69	> 200000	28	9	70
FC(F)c1nnc(-c2ccc(Cn3cc(-c4ccc(NC5=NCCN5)cc4)cn3)nc2)o1 [compd. 270, N-(4-(1-((5-(5-(difluoromethyl)-1,3,4-oxadiazol-2-yl)pyridin-2-yl)methyl)-1H-pyrazol-4-yl)phenyl)-4,5-dihydro-1H-imidazol-2-amine]	93	89	> 200000	18	79	78
O=C1Nc2ccc(-c3cn(Cc4ccc(-c5nnc(C(F)F)o5)cn4)nn3)cc2NC12CCNCC2 [compound 36]	89	78	> 200000	16	94	76
